Experimental data reported in patent US20230302018A1 (priority 2022, published 2023).

Test system: Male Wistar rats exposed to nitrogen mustard (NM)
Settings: rat, in vivo

CC[C@H]1[C@@H](O)[C@@H]2[C@H](CC[C@]3(C)[C@@H]([C@H](C)CCC(=O)O)CC[C@@H]23)[C@@]2(C)CC[C@@H](O)C[C@@H]12 [OCA, 6α-ethyl-chenodeoxycholic acid]
reduction in total collagen (hydroxyproline in tissue) compared to NM alone: 2 fold
